# Experimental data from patent US20040132803A1, “Agent for the treatment of overactive bladder” (priority 2003, published 2004).
# Assays:
# [1] = tested on: rats with hypertrophic bladder; test: Inhibition of detrusor instability, cystometry in rats with partial urethra obstruction (hypertrophic bladder); format: in vivo, rat; details: for micturition contraction, relative to before administration = 100 / pre-micturition contraction, relative to before administration = 100: rats with partial urethra obstruction
# From the text: Partial urethra obstruction was induced in rats.
# dd male mice = details: mouse, in vivo, po, 7 days
# Method: The test compound was administered orally or intraperitoneally to 3 animals per group of dd male mice (body weight, 20±1 g). Minimum lethal dose (MLD) value was obtained by observing mortality on the 7th day after the administration.
# [2] = tested on: delayed rectifier K^+ currents; test: Delayed rectifier K^+ currents in Fast Blue-labeled capsaicin-sensitive bladder afferent neurons; format: cell-based, rat; details: 1.0 × 10^−6 mol/L
# Method: (§1) Experiments were performed on adult female Sprague Dawley rats. First and second series of the experiments were performed, respectively, in unidentified DRG neurons and a specific population of DRG neurons innervating the urinary bladder. The population of DRG neurons that innervate the urinary bladder were labeled by retrograde axonal transport of the fluorescent dye, Fast Blue (4% w/v) (Polyloy, Gross Umstadt, Germany), injected into the wall of the bladder in halothane-anesthetized animals 7 days before the dissociation. The dye was injected with a 28 gauge needle at three to six sites on the dorsal surface of the organ (5-6 μL per site, total volume of 20-30 μL). Each injection site was washed with saline to minimize contamination of adjacent organs with the dye.
# (§2) Freshly dissociated neurons from DRG were prepared from halothane-anesthetized animals. […]
# (§3) Dye-labeled primary afferent neurons that innervate the urinary bladder were identified using an inverted phase-contrast microscope (Nikon, Tokyo, Japan) with fluorescent attachments (UV-1A filter; excitation wavelength, 365 nm). […] All recordings were made with an Axopatch-1D patch-clamp amplifier (Axon Instruments, Foster City, Calif.), and data were acquired and analyzed by PCLAMP software (Axon Instruments).
# (§4) In voltage-clamp recordings, outward K^+ currents and inward Na^+ currents were measured. […]
# [3] = tested on: delayed rectifier K^+ currents; test: Voltage-clamp outward K^+ currents at HP −20 mV in unidentified DRG neurons; format: cell-based, rat; details: for K^+ current at HP: −20 mV, relative value (before compound = 1): unidentified DRG neurons
# Method: as §1
# Freshly dissociated neurons from DRG were prepared from halothane-anesthetized animals. L6 and S1 DRG were dissected from animals and then dissociated in a shaking bath for 25 minutes at 35° C. with 5 mL DMEM (Sigma) containing 0.3 mg/mL trypsin (Type 3, Sigma), 1 mg/mL collagenase (Type 1, Sigma), and 0.1 mg/mL deoxyribonuclease (Type 4, Sigma). Trypsin inhibitor (Type 2a, Sigma) was then added thereto to neutralize the activity of trypsin. Individual DRG cell bodies were isolated by trituration and then plated on a poly-L-lysine-coated 35 mm Petri dishes.
# Dye-labeled primary afferent neurons that innervate the urinary bladder were identified using an inverted phase-contrast microscope (Nikon, Tokyo, Japan) with fluorescent attachments (UV-1A filter; excitation wavelength, 365 nm). Gigaohm-seal whole-cell recordings were performed at room temperature (20-22° C.) on each labeled neuron in a culture dish that usually contained three to seven labeled cells among a few hundred unlabeled neurons. The internal solution contained (in mmol/L): KCl 140, CaCl2 1, MgCl2 2, EGTA 11, HEPES 10, Mg-ATP 2, and Tris-GTP 0.4 adjusted to pH 7.4 with KOH. Patch electrodes had resistances of 1-4 MΩ when filled with the internal solution. Neurons were superfused at a flow rate of 1.5 mL/minutes with an external solution containing (in mmol/L): NaCl 150, KCl 5, CaCl2 2.5, MgCl2 1, HEPES 10, and D-glucose 10, adjusted to pH 7.4 with NaOH. All recordings were made with an Axopatch-1D patch-clamp amplifier (Axon Instruments, Foster City, Calif.), and data were acquired and analyzed by PCLAMP software (Axon Instruments).
# In voltage-clamp recordings, outward K^+ currents and inward Na^+ currents were measured. For the isolation of K^+ currents, the external solution was changed to one containing (in mmol/L): choline-Cl 150, KOH 5, CaCl2 0.03, HEPES 10, Mg(OH)2 3, and D-glucose 10, adjusted to pH 7.4 with HCl.
# In first series of experiments using unidentified DRG neurons, outward K^+ currents were evoked by voltage steps to +60 mV, 800 ms long from a holding potentials of −90 mV, this was followed by a 1-second conditioning prepulse to −20 mV followed by a second pulse to +60 mV, identical to the first in the sequence. In the second series of experiments using Fast Blue-labeled bladder afferent neurons, slowly-inactivating A-type K^+ currents were isolated by. subtraction of outward K^+ currents activated from a holding potential of −40 mV (on the condition of inactivation of the majority of slowly-inactivating A-type K^+ currents) from those activated from a holding potential of −120 mV (on the condition of full activation of slowly-inactivating A-type K^+ currents). A compound was added cumulatively, starting with a lower concentration. Currents were measured at the maximum (peak) and normalized to control (before addition of the compound).
# [4] = tested on: slowly-inactivating A-type K^+ currents; test: Slowly-inactivating A-type K^+ currents in Fast Blue-labeled capsaicin-sensitive bladder afferent neurons; format: cell-based, rat; details: 1.0 × 10^−6 mol/L
# Method: as §1, §2, §3, §4
# [5] = 0.001 mg/kg p.o., after 3 hours
# [6] = 0.001 mg/kg p.o., after 5 hours
compound,measurement,setting,value
"C[C@](O)(C(=O)Nc1cccc2c1C(=O)c1sccc1CS2(=O)=O)C(F)(F)F [Compound 1, (S)-(+)-N-(5,5-dioxido-10-oxo-4,10-dihydrothieno[3,2-c][l]benzothiepin-9-yl)-3,3,3-trifluoro-2-hydroxy-2-methylpropanamide]","micturition contraction, relative to before administration = 100","[1]; 0.001 mg/kg p.o., after 1 hour",99.3 ± 2.3%
same,"pre-micturition contraction, relative to before administration = 100","[1]; 0.001 mg/kg p.o., after 1 hour",105.9 ± 7.8%
same,"micturition contraction, relative to before administration = 100",[1]; [5],101.5 ± 3.3%
same,"pre-micturition contraction, relative to before administration = 100",[1]; [5],100.3 ± 10.0%
same,"micturition contraction, relative to before administration = 100",[1]; [6],98.7 ± 5.2%
same,"pre-micturition contraction, relative to before administration = 100",[1]; [6],104.2 ± 10.2%
same,"micturition contraction, relative to before administration = 100","[1]; 0.01 mg/kg p.o., after 1 hour",99.6 ± 1.2%
same,"pre-micturition contraction, relative to before administration = 100","[1]; 0.01 mg/kg p.o., after 1 hour",59.5 ± 4.1 %
same,"micturition contraction, relative to before administration = 100","[1]; 0.01 mg/kg p.o., after 3 hours",92.6 ± 3.2%
same,"pre-micturition contraction, relative to before administration = 100","[1]; 0.01 mg/kg p.o., after 3 hours",69.5 ± 4.4 %
same,"micturition contraction, relative to before administration = 100","[1]; 0.01 mg/kg p.o., after 5 hours",90.1 ± 4.3%
same,"pre-micturition contraction, relative to before administration = 100","[1]; 0.01 mg/kg p.o., after 5 hours",67.8 ± 5.5 %
same,"micturition contraction, relative to before administration = 100","[1]; 0.1 mg/kg p.o., after 1 hour",106.2 ± 9.2%
same,"pre-micturition contraction, relative to before administration = 100","[1]; 0.1 mg/kg p.o., after 1 hour",55.8 ± 8.2 %
same,"micturition contraction, relative to before administration = 100","[1]; 0.1 mg/kg p.o., after 3 hours",105.2 ± 9.6%
same,"pre-micturition contraction, relative to before administration = 100","[1]; 0.1 mg/kg p.o., after 3 hours",66.2 ± 4.7 %
same,"micturition contraction, relative to before administration = 100","[1]; 0.1 mg/kg p.o., after 5 hours",100.1 ± 8.6%
same,"pre-micturition contraction, relative to before administration = 100","[1]; 0.1 mg/kg p.o., after 5 hours",69.2 ± 7.4 %
same,effect on micturition contraction,[1]; rats with hypertrophic bladder,had no influence
same,effect on pre-micturition contraction (detrusor instability),[1]; rats with hypertrophic bladder,inhibited
same,Minimum lethal dose (MLD),dd male mice,"> 1,000 mg/kg"
same,"Delayed rectifier HP: −40 mV, normalized to control",[2],1.10 ± 0.01
same,"K^+ current at HP: −20 mV, relative value","[3]; 1.0 × 10^−5 mol/L, in the presence of 5 μmol/L verapamil",1.00 ± 0.02
same,"K^+ current at HP: −20 mV, relative value","[3]; 1.0 × 10^−5 mol/L, in the presence of 20 mmol/L tetraethylammonium",1.01 ± 0.02
same,"K^+ current at HP: −20 mV, relative value (before compound = 1)",[3]; 1.0 × 10^−5 mol/L,0.88 ± 0.07
same,"K^+ current at HP: −20 mV, relative value","[3]; 1.0 × 10^−6 mol/L, in the presence of 5 μmol/L verapamil",1.00 ± 0.01
same,"K^+ current at HP: −20 mV, relative value","[3]; 1.0 × 10^−6 mol/L, in the presence of 20 mmol/L tetraethylammonium",1.00 ± 0.00
same,"K^+ current at HP: −20 mV, relative value (before compound = 1)",[3]; 1.0 × 10^−6 mol/L,1.00 ± 0.02
same,"K^+ current at HP: −20 mV, relative value","[3]; 1.0 × 10^−7 mol/L, in the presence of 5 μmol/L verapamil",1.00 ± 0.01
same,"K^+ current at HP: −20 mV, relative value","[3]; 1.0 × 10^−7 mol/L, in the presence of 20 mmol/L tetraethylammonium",0.99 ± 0.02
same,"K^+ current at HP: −20 mV, relative value (before compound = 1)",[3]; 1.0 × 10^−7 mol/L,1.02 ± 0.01
same,"K^+ current at HP: −20 mV, relative value (before compound = 1)",[3]; 1.0 × 10^−8 mol/L,0.98 ± 0.04
same,"K^+ current at HP: −20 mV, relative value (before compound = 1)",[3]; 2.5 × 10^−8 mol/L,1.01 ± 0.03
same,"K^+ current at HP: −20 mV, relative value","[3]; 5.0 × 10^−4 mol/L, in the presence of 5 μmol/L verapamil",0.83 ± 0.06
same,"K^+ current at HP: −20 mV, relative value","[3]; 5.0 × 10^−4 mol/L, in the presence of 20 mmol/L tetraethylammonium",0.25 ± 0.04
same,"K^+ current at HP: −20 mV, relative value","[3]; 5.0 × 10^−4 mol/L, in the presence of 60 mmol/L tetraethylammonium",0.54 ± 0.02
same,"K^+ current at HP: −20 mV, relative value","[3]; 5.0 × 10^−5 mol/L, in the presence of 5 μmol/L verapamil",0.98 ± 0.01
same,"K^+ current at HP: −20 mV, relative value","[3]; 5.0 × 10^−5 mol/L, in the presence of 20 mmol/L tetraethylammonium",0.84 ± 0.06
same,"K^+ current at HP: −20 mV, relative value","[3]; 5.0 × 10^−5 mol/L, in the presence of 60 mmol/L tetraethylammonium",0.95 ± 0.03
same,"K^+ current at HP: −20 mV, relative value (before compound = 1)",[3]; 5.0 × 10^−5 mol/L,0.81 ± 0.08
same,"K^+ current at HP: −20 mV, relative value","[3]; 5.0 × 10^−6 mol/L, in the presence of 5 μmol/L verapamil",1.01 ± 0.01
same,"K^+ current at HP: −20 mV, relative value","[3]; 5.0 × 10^−6 mol/L, in the presence of 20 mmol/L tetraethylammonium",0.98 ± 0.01
same,"K^+ current at HP: −20 mV, relative value","[3]; 5.0 × 10^−6 mol/L, in the presence of 60 mmol/L tetraethylammonium",0.97 ± 0.02
same,"K^+ current at HP: −20 mV, relative value","[3]; 5.0 × 10^−7 mol/L, in the presence of 5 μmol/L verapamil",1.00 ± 0.01
same,"K^+ current at HP: −20 mV, relative value","[3]; 5.0 × 10^−7 mol/L, in the presence of 20 mmol/L tetraethylammonium",1.01 ± 0.01
same,"K^+ current at HP: −20 mV, relative value","[3]; 5.0 × 10^−7 mol/L, in the presence of 60 mmol/L tetraethylammonium",0.97 ± 0.03
same,"K^+ current at HP: −20 mV, relative value (before compound = 1)",[3]; 5.0 × 10^−7 mol/L,1.01 ± 0.02
same,"K^+ current at HP: −20 mV, relative value","[3]; 5.0 × 10^−8 mol/L, in the presence of 5 μmol/L verapamil",1.00 ± 0.00
same,"K^+ current at HP: −20 mV, relative value","[3]; 5.0 × 10^−8 mol/L, in the presence of 20 mmol/L tetraethylammonium",0.99 ± 0.01
same,"K^+ current at HP: −20 mV, relative value","[3]; 5.0 × 10^−8 mol/L, in the presence of 60 mmol/L tetraethylammonium",1.00 ± 0.01
same,"K^+ current at HP: −20 mV, relative value (before compound = 1)",[3]; 5.0 × 10^−8 mol/L,1.00 ± 0.01
same,"K^+ current at HP: −20 mV, relative value","[3]; 5.0 × 10^−9 mol/L, in the presence of 20 mmol/L tetraethylammonium",0.99 ± 0.00
same,"K^+ current at HP: −20 mV, relative value (before compound = 1)",[3]; 5.0 × 10^−9 mol/L,0.98 ± 0.02
same,influence upon delayed rectifier K^+ currents,"[3]; unidentified DRG cells, HP −20 mV",does not have no influences (little influences)
same,"A-type IK (HP: −120 mV)-(HP: −40 mV), normalized to control",[4],1.26 ± 0.03
